In patent US11254663B2 (BRISTOL-MYERS SQUIBB COMPANY, priority 2019, dated 2022):

Target: FXR (Homo sapiens (Human), UniProt Q96RI1)
Experiment: transient human FXR/Gal4-luciferase reporter assay
Format: cell-based
Conditions: not given
In short: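 Compound exposure ran overnight at 37 °C and activity was measured as luminescence with Steady-Glo reagent. The cells were a HEK293 line stably expressing firefly luciferase under five Gal4 response elements. They were transiently transfected, one night beforehand, with a plasmid encoding Gal4 DNA-binding domain fused to the human FXR ligand-binding domain.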

Sequence of FXR (Q96RI1 262-486): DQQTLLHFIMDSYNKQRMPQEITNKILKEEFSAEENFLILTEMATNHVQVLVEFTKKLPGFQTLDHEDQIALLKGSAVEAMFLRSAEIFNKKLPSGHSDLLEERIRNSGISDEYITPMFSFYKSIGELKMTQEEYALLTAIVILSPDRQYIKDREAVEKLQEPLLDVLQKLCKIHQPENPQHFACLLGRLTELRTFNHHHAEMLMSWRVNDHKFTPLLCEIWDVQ

Compound | EC50 [nM]
CC(C)(O)c1ccc(-c2cccc(N(CC34CCC(c5noc(C(C)(C)F)n5)(CC3)CC4)C(=O)NCC3(O)CC3)c2)cc1 [Example 648, 1-((4-(5-(2-fluoropropan-2-yl)-1,2,4-oxadiazol-3-yl)bicyclo[2.2.2]octan-1-yl)methyl)-3-((1-hydroxycyclopropyl)methyl)-1-(4′-(2-hydroxypropan-2-yl)-[1,1′-biphenyl]-3-yl)urea] | 509

Same assay, conditions: Gal4-hFXR fusion construct, HEK293 reporter cells; response relative to 8 μM GW-4064

Compound | EC50 [nM]
CC(C)Oc1ccc(-c2ccnc(N(CC34CCC(c5ccc(C(C)(F)F)cn5)(CC3)CC4)C(=O)[C@H]3C[C@@](C)(OC(F)F)C3)c2)cc1 [Example 640, (cis)-N-((4-(5-(1,1-difluoroethyl)pyridin-2-yl)bicyclo[2.2.2]octan-1-yl)methyl)-3-(difluoromethoxy)-N-(4-(4-isopropoxyphenyl)pyridin-2-yl)-3-methylcyclobutane-1-carboxamide] | 27
CC(C)NC(=O)NC12CCC(CN(C(=O)C3CC(O)(C(F)(F)F)C3)c3cccc(-c4ccc(OC(C)C)cc4)c3)(CC1)CC2 (stereo not drawn) [Example 604, (cis)-3-hydroxy-N-(4′-isopropoxy-[1,1′-biphenyl]-3-yl)-N-((4-(3-isopropylureido)bicyclo[2.2.2]octan-1-yl)methyl)-3-(trifluoromethyl)cyclobutane-1-carboxamide] | 968
CC1(c2nc(C34CCC(CN(C(=O)C56CC(F)(C5)C6)c5cccc(-c6cnc(C7CC7)nc6)c5)(CC3)CC4)no2)CC1 [Example 403, N-(3-(2-cyclopropylpyrimidin-5-yl)phenyl)-3-fluoro-N-((4-(5-(1-methylcyclopropyl)-1,2,4-oxadiazol-3-yl)bicyclo[2.2.2]octan-1-yl)methyl)bicyclo[1.1.1]pentane-1-carboxamide] | 100
CCOc1ncc(-c2ccnc(N(CC34CCC(c5noc(C(C)(C)C)n5)(CC3)CC4)C(=O)C34CC(F)(C3)C4)c2)cn1 [Example 531, N-((4-(5-(tert-butyl)-1,2,4-oxadiazol-3-yl)bicyclo[2.2.2]octan-1-yl)methyl)-N-(4-(2-ethoxypyrimidin-5-yl)pyridin-2-yl)-3-fluorobicyclo[1.1.1]pentane-1-carboxamide] | 159
CC(C)(C)c1nc(C23CCC(CN(C(=O)C45CC(F)(C4)C5)c4cccc(-c5cnc6nc(C7CC7)sc6c5)c4)(CC2)CC3)no1 [Example 458, N-((4-(5-(tert-butyl)-1,2,4-oxadiazol-3-yl)bicyclo[2.2.2]octan-1-yl)methyl)-N-(3-(2-cyclopropylthiazolo[4,5-b]pyridin-6-yl)phenyl)-3-fluorobicyclo[1.1.1]pentane-1-carboxamide] | 251
CC(C)(Oc1ccc(-c2cccc(N(CC34CCC(c5noc(C(C)(C)F)n5)(CC3)CC4)C(=O)[C@H]3C[C@](O)(C(F)(F)F)C3)c2)cc1)C(N)=O [Example 654, (cis)-N-(4′-((1-amino-2-methyl-1-oxopropan-2-yl)oxy)-[1,1′-biphenyl]-3-yl)-N-((4-(5-(2-fluoropropan-2-yl)-1,2,4-oxadiazol-3-yl)bicyclo[2.2.2]octan-1-yl)methyl)-3-hydroxy-3-(trifluoromethyl)cyclobutane-1-carboxamide] | 169
Cc1nc2ccc(-c3ccnc(N(CC45CCC(c6nc(C7CC7)no6)(CC4)CC5)C(=O)C45CC(F)(C4)C5)c3)cc2o1 [Example 550, N-((4-(3-cyclopropyl-1,2,4-oxadiazol-5-yl)bicyclo[2.2.2]octan-1-yl)methyl)-3-fluoro-N-(4-(2-methylbenzo[d]oxazol-6-yl)pyridin-2-yl)bicyclo[1.1.1]pentane-1-carboxamide] | 70
Cc1nc2ccc(-c3cncc(N(CC45CCC(c6nc(C7CC7)no6)(CC4)CC5)C(=O)C45CC(F)(C4)C5)c3)cc2s1 [Example 425, N-((4-(3-cyclopropyl-1,2,4-oxadiazol-5-yl)bicyclo[2.2.2]octan-1-yl)methyl)-3-fluoro-N-(5-(2-methylbenzo[d]thiazol-6-yl)pyridin-3-yl)bicyclo[1.1.1]pentane-1-carboxamide] | 198
CC(C)(C#N)OC(=O)N(CC12CCC(c3noc(C(C)(C)F)n3)(CC1)CC2)c1cccc(-c2ccc(C(C)(C)O)cc2)c1 [Example 598, 2-cyanopropan-2-yl ((4-(5-(2-fluoropropan-2-yl)-1,2,4-oxadiazol-3-yl)bicyclo[2.2.2]octan-1-yl)methyl)(4′-(2-hydroxypropan-2-yl)-[1,1′-biphenyl]-3-yl) carbamate] | 29
COc1nccc(-c2cccc(N(CC34CCC(c5nc(C6CC6)no5)(CC3)CC4)C(=O)C3CC(F)(F)C3)c2)n1 [Example 243, N-((4-(3-cyclopropyl-1,2,4-oxadiazol-5-yl)bicyclo[2.2.2]octan-1-yl)methyl)-3,3-difluoro-N-(3-(2-methoxypyrimidin-4-yl)phenyl)cyclobutane-1-carboxamide] | 428
CC(C)c1noc(C23CCC(CN(C(=O)C45CC(F)(C4)C5)c4cccc(-c5cnc(C(F)(F)F)nc5)c4)(CC2)CC3)n1 [Example 384, 3-fluoro-N-((4-(3-isopropyl-1,2,4-oxadiazol-5-yl)bicyclo[2.2.2]octan-1-yl)methyl)-N-(3-(2-(trifluoromethyl)pyrimidin-5-yl)phenyl)bicyclo[1.1.1]pentane-1-carb oxamide] | 184
CCOc1cnc(-c2cccc(N(CC34CCC(c5nc(C(C)C)no5)(CC3)CC4)C(=O)C34CC(F)(C3)C4)c2)nc1 [Example 395, N-(3-(5-ethoxypyrimidin-2-yl)phenyl)-3-fluoro-N-((4-(3-isopropyl-1,2,4-oxadiazol-5-yl)bicyclo[2.2.2]octan-1-yl)methyl)bicyclo[1.1.1]pentane-1-carboxamide] | 156
CC(C)Oc1ccc(-c2ccnc(N(CC34CCC(c5noc(C(C)(F)F)n5)(CC3)CC4)C(=O)N3CCOCC3)c2)cc1 [Example 626, N-((4-(5-(1,1-difluoroethyl)-1,2,4-oxadiazol-3-yl)bicyclo[2.2.2]octan-1-yl)methyl)-N-(4-(4-isopropoxyphenyl)pyridin-2-yl)morpholine-4-carboxamide] | 72
CC(C)(O)Cn1cc(-c2cc(N(CC34CCC(c5noc(C(C)(F)F)n5)(CC3)CC4)C(=O)NC34CC(C3)C4)ccc2F)cn1 [Example 633, 3-(bicyclo[1.1.1]pentan-1-yl)-1-((4-(5-(1,1-difluoroethyl)-1,2,4-oxadiazol-3-yl)bicyclo[2.2.2]octan-1-yl)methyl)-1-(4-fluoro-3-(1-(2-hydroxy-2-methylpropyl)-1H-pyrazol-4-yl)phenyl)urea] | 32
COc1ncc(-c2cccc(N(CC34CCC(c5nc(C6CC6)no5)(CC3)CC4)C(=O)C34CC(F)(C3)C4)c2)cn1 [Example 248, N-((4-(3-cyclopropyl-1,2,4-oxadiazol-5-yl)bicyclo[2.2.2]octan-1-yl)methyl)-3-fluoro-N-(3-(2-methoxypyrimidin-5-yl)phenyl)bicyclo[1.1.1]pentane-1-carboxamide] | 154
CC(C)Oc1ccc(-c2cccc(N(CC34CCC(c5noc(C(C)(C)F)n5)(CC3)CC4)C(=O)OC(C)(C)C(F)(F)F)c2)cc1 [Example 584, 1,1,1-trifluoro-2-methylpropan-2-yl ((4-(5-(2-fluoropropan-2-yl)-1,2,4-oxadiazol-3-yl)bicyclo[2.2.2]octan-1-yl)methyl)(4′-isopropoxy-[1,1′-biphenyl]-3-yl)carbamate] | 31
CC(C)(F)c1nc(C23CCC(CN(C(=O)C45CC(F)(C4)C5)c4cccc(-c5cn[nH]c(=O)c5)c4)(CC2)CC3)no1 [Example 594, 3-fluoro-N-((4-(5-(2-fluoropropan-2-yl)-1,2,4-oxadiazol-3-yl)bicyclo[2.2.2]octan-1-yl)methyl)-N-(3-(6-oxo-1,6-dihydropyridazin-4-yl)phenyl)bicyclo[1.1.1]pentane-1-carboxamide] | 1840
O=C(N(CC12CCC(c3nc(C4CC4)no3)(CC1)CC2)c1cccc(-c2cnc(C(F)(F)F)nc2)c1)C12CC(F)(C1)C2 [Example 262, N-((4-(3-cyclopropyl-1,2,4-oxadiazol-5-yl)bicyclo[2.2.2]octan-1-yl)methyl)-3-fluoro-N-(3-(2-(trifluoromethyl)pyrimidin-5-yl)phenyl)bicyclo[1.1.1]pentane-1-carboxamide] | 140
CC1(c2nc(C34CCC(CN(C(=O)C56CC(F)(C5)C6)c5cccc(-c6ccc(OC(F)F)cc6)c5)(CC3)CC4)no2)CC1 [Example 405, N-(4′-(difluoromethoxy)-[1,1′-biphenyl]-3-yl)-3-fluoro-N-((4-(5-(1-methylcyclopropyl)-1,2,4-oxadiazol-3-yl)bicyclo[2.2.2]octan-1-yl)methyl)bicyclo[1.1.1]pentane-1-carboxamide] | 53
CC(C)(O)c1ccc(-c2cccc(N(CC34CCC(c5noc(C(C)(F)F)n5)(CC3)CC4)C(=O)C34CC(C#N)(C3)C4)c2)cc1 [Example 585, 3-cyano-N-((4-(5-(1,1-difluoroethyl)-1,2,4-oxadiazol-3-yl)bicyclo[2.2.2]octan-1-yl)methyl)-N-(4′-(2-hydroxypropan-2-yl)-[1,1′-biphenyl]-3-yl)bicyclo[1.1.1]pentane-1-carboxamide] | 18
CC(C)(O)c1ccc(-c2cccc(N(CC34CCC(c5noc(C(C)(C)F)n5)(CC3)CC4)C(=O)[C@H]3C[C@@](C)(O)C3)c2)cc1 [Example 577, (cis)-N-((4-(5-(2-fluoropropan-2-yl)-1,2,4-oxadiazol-3-yl)bicyclo[2.2.2]octan-1-yl)methyl)-3-hydroxy-N-(4′-(2-hydroxypropan-2-yl)-[1,1′-biphenyl]-3-yl)-3-methylcyclobutane-1-carboxamide] | 23
CCOc1ncc(-c2ccnc(N(CC34CCC(c5nc(C6CC6)no5)(CC3)CC4)C(=O)C34CC(F)(C3)C4)c2)cn1 [Example 548, N-((4-(3-cyclopropyl-1,2,4-oxadiazol-5-yl)bicyclo[2.2.2]octan-1-yl)methyl)-N-(4-(2-ethoxypyrimidin-5-yl)pyridin-2-yl)-3-fluorobicyclo[1.1.1]pentane-1-carboxamide] | 111
